Experimental findings from patent US20260138978A1, “POSITIVE ALLOSTERIC MODULATORS OF THE MUSCARINIC ACETYLCHOLINE RECEPTOR M1” (Vanderbilt University, priority 2022, published 2026) are described below.

The structures appear in SMILES notation.

For assay [1], the target named is T1, human mAChRM1 (Homo sapiens, UniProt P11229).
T1 construct: host or cells: CHO-K1
T1 sequence (P11229 1-460): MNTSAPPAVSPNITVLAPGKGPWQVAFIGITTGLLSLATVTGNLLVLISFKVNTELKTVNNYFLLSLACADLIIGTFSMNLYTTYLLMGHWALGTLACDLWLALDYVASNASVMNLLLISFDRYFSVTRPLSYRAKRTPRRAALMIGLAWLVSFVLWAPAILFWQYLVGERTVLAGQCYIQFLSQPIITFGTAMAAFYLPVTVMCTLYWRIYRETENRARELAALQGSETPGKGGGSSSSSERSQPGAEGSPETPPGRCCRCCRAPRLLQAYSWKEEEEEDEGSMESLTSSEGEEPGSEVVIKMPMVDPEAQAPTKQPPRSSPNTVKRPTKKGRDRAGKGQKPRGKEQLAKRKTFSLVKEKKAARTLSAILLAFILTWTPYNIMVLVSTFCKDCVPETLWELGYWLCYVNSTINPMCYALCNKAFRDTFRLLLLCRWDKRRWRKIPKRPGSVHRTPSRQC
The experiment in a line: mAChR M1 cell-based functional assay (calcium mobilization), positive allosteric modulator activity: increase in the EC20 acetylcholine response. As to conditions: for Emax: PAM mode; for EC50: increase in the EC20 acetylcholine response, read-out: PAM Activity Human M1 EC50; call rule not given here. The source says:
(§1) Chinese hamster ovary (CHO-K1) cells stably expressing rat (r)M1 were purchased from the American Type Culture Collection and cultured according to their indicated protocol. CHO cells stably expressing human (h)M2, hM3, and hM5 were described previously (Levey, et al., 1991); hM1 and hM4 cDNAs were purchased from Missouri S&T cDNA Resource; rM4 cDNA was provided by T. I. Bonner (National Institutes of Health, Bethesda, MD). rM2 and rM3 were cloned from a rat brain cDNA library and sequence verified. hM1, rM2, rM3, hM4, and rM4 cDNAs were used to stably transfect CHO-K1 cells purchased from the American Type Culture Collection using Lipofectamine 2000. To make stable rM2, hM2, rM3, hM4. and rM4 cell lines for use in calcium mobilization assays, these cells also were stably transfected with a chimeric G-protein (Gqi5) (provided by B. R. Conklin, University of California, San Francisco) using Lipofectamine 2000. rM1, hM1, rM3, hM3, rM5, and hM5 cells were grown in Ham's F-12 medium containing 10% heat-inactivated fetal bovine serum (FBS), 20 mM HEPES, and 50 μg/mL G418 sulfate. rM2-Gqi5, hM2-Gqi5, and hM4-Gqi5 cells were grown in the same medium also containing 500 µg/mL Hygromycin B. Stable rM4-Gqi5 cells were grown in DMEM containing 10% heat-inactivated FBS, 20 mM HEPES, 400 μg/mL G418 sulfate, and 500 μg/mL Hygromycin B.
(§2) For high throughput measurement of agonist-evoked increases in intracellular calcium, CHO-K1 cells stably expressing muscarinic receptors were plated in growth medium lacking G418 and hygromycin at 15,000 cells/[…] in Greiner 384-well black-walled, tissue culture (TC)-treated, clear-bottom plates (VWR). Cells were incubated overnight at 37° C. and 5% CO2. The next day, cells were washed using an ELX 405 (BioTek) with four washes (80 μL) of assay buffer then aspirated to 20 μL. Next, 20 μL of 16 μM Fluo-4/acetoxymethyl ester (Invitrogen, Carlsbad, CA) prepared as a 2.3 mM stock in DMSO and mixed in a 1:1 ratio with 10% (w/v) Pluronic F-127 and diluted in assay buffer was added to the wells and the cell plates were incubated for 50 min at 37° C. and 5% CO2. Dye was removed by washing with the ELX 405 (four 80 μL washes of assay buffer) then aspirated to 20 μL. Compound master plates were formatted in an 11 point CR^c format (1:3 dilutions) in 100% DMSO with a starting concentration of 10 mM using the BRAVO liquid handler (Agilent). Test compound CRCs were then transferred to daughter plates (240 nL) using the Echo acoustic plate reformatter (Labcyte, Sunnyvale, CA) and then diluted into assay buffer ([…]) to a 2× stock using a Thermo Fisher Combi (Thermo Fisher Scientific, Waltham, MA).
(§3) Calcium flux was measured using the Functional Drug Screening System (FDSS) 6000 (Hamamatsu Corporation, Tokyo, Japan) as an increase in the fluorescent static ratio. Compounds were applied to cells (20 μL, 2×) using the automated system of the FDSS 6000 at 4 s into the 300 s protocol and the data were collected at 1 Hz. […] Agonist activity was analyzed as a concentration-dependent increase in calcium mobilization upon compound addition. Emax values for agonist activity are expressed relative to the maximum for acetylcholine. Positive allosteric modulator activity was analyzed as a concentration-dependent increase in the EC20 acetylcholine response. Antagonist activity was analyzed as a concentration-dependent decrease in the EC80 acetylcholine response. Concentration-response curves were generated using a four-parameter logistical equation in XLfit curve fitting software (IDBS, Bridgewater, NJ) for Excel (Microsoft, Redmond, WA) or Prism (GraphPad Software, Inc., San Diego, CA).
Activity (EC50 and Emax) was determined in the mAChRM1 cell-based functional assay as described above and the data are shown in Table 16. The compound numbers correspond to the compound numbers used in Table 15.

For assay [2], the target named is T1, human mAChRM1. The experiment in a line: mAChR M1 cell-based functional assay (calcium mobilization), agonist activity upon compound addition, Emax relative to acetylcholine maximum. As to conditions: for Agonist Activity Human M1 EC50 / EC50: calcium mobilization upon compound addition; for Emax: relative to the maximum for acetylcholine.
Excerpt: Lack of agonist activity may be measured as weak or no increase in calcium fluorescence in mAChRM1-transfected CHO-K1 cells in the presence of the compound, compared to the response of equivalent CHO-K1 cells in the absence of the compound. Lack of mAChRM1 agonist activity may be determined as a percent response relative to acetylcholine. For example, a disclosed compound may have less than or equal to 30%, 25%, 20%, 15%, 10%, 5%, or 1% mAChRM1 agonist activity relative to acetylcholine. A disclosed compound may have substantially no mAChRM1 agonist activity. […] The absence of mAChRM1 agonist activity may contribute to the avoidance of cholinergic adverse effect liability.
as §1, §2
as §3, with “Antagonist activity was analyzed as a concentration-dependent decrease in the EC80 acetylcholine response. Concentration-response curves were generated using a four-parameter logistical equation in XLfit curve fitting software (IDBS, Bridgewater, NJ) for Excel (Microsoft, Redmond, WA) or Prism (GraphPad Software, Inc., San Diego, CA).” left out

`Cc1cc(-c2cc(C(C)(C)O)cc3nn(C)cc23)cc(F)c1CN1Cc2ncccc2C1=O` [Compound 25, 6-(2-fluoro-4-(6-(2-hydroxypropan-2-yl)-2-methyl-2H-indazol-4-yl)-6-methylbenzyl)-6,7-dihydro-5H-pyrrolo[3,4-b]pyridin-5-one]: on human mAChRM1 [1], the Emax was determined as 76% and the EC50 worked out at 2.52 µM. In addition, at human mAChRM1 [2], the “Agonist Activity Human M1 EC50” value is “inactive”.
In the same order, the values of `Cn1cc2c(-c3ccc(CN4Cc5ncccc5C4=O)c(F)c3)cc(C(C)(C)O)cc2n1` [Compound 26, 6-(2-fluoro-4-(6-(2-hydroxypropan-2-yl)-2-methyl-2H-indazol-4-yl)benzyl)-6,7-dihydro-5H-pyrrolo[3,4-b]pyridin-5-one] are 83%, 1.28 µM and “inactive”.
Take `CC(C)(O)c1ccc(-c2cc(Cl)c(CN3Cc4ncccc4C3=O)c(Cl)c2)cc1` [Compound 46, 6-((3,5-dichloro-4′-(2-hydroxypropan-2-yl)-[1,1′-biphenyl]-4-yl)methyl)-6,7-dihydro-5H-pyrrolo[3,4-b]pyridin-5-one]: on human mAChRM1 [1], the Emax worked out at 65% and the EC50 stood at 1.44 µM. Moreover, on human mAChRM1 [2], the “Agonist Activity Human M1 EC50” value is “inactive”.
As to `Cn1cc2c(-c3cc(F)c(CN4Cc5ncccc5C4=O)c(F)c3)ccc(C(C)(O)C3CC3)c2n1` (centres unmarked) [Compound 80, 6-(4-(7-(1-cyclopropyl-1-hydroxyethyl)-2-methyl-2H-indazol-4-yl)-2,6-difluorobenzyl)-6,7-dihydro-5H-pyrrolo[3,4-b]pyridin-5-one], on human mAChRM1 [1], the Emax was 83% and the EC50 was 0.373 µM. The “Agonist Activity Human M1 EC50” value on human mAChRM1 [2] was “inactive”.
In the same order, the values of `Cc1cc(-c2cc(C(C)(C)O)c3nn(C)cc3c2)cc(F)c1CN1Cc2cccc(F)c2C1=O` [Compound 168, 7-fluoro-2-(2-fluoro-4-(7-(2-hydroxypropan-2-yl)-2-methyl-2H-indazol-5-yl)-6-methylbenzyl)isoindolin-1-one] are 79%, 0.998 µM and “inactive”.
The like results for `CC(C)(O)c1ccc(-c2ccc(CN3Cc4ncccc4C3=O)c(F)c2)c2ccccc12` [Compound 73, 6-(2-fluoro-4-(4-(2-hydroxypropan-2-yl)naphthalen-1-yl)benzyl)-6,7-dihydro-5H-pyrrolo[3,4-b]pyridin-5-one] were, in that order, 58%, at least 10 µM and “inactive”.
For the compound `Cn1cc2c(-c3cc(F)c(CN4Cc5cccnc5C4=O)c(C4CC4)c3)ccc(C(C)(C)O)c2n1` [Compound 133, 6-(2-cyclopropyl-6-fluoro-4-(7-(2-hydroxypropan-2-yl)-2-methyl-2H-indazol-4-yl)benzyl)-5,6-dihydro-7H-pyrrolo[3,4-b]pyridin-7-one], on human mAChRM1 [1], the Emax amounted to 79% and the EC50 is 0.061 µM. On human mAChRM1 [2], the EC50 amounted to 4.42 µM and the Emax turned out to be 72%.
For the compound `Cn1cc2c(-c3cc(F)c(CN4Cc5ccccc5C4=O)c(F)c3)ccc(C(C)(C)O)c2n1` [Compound 172, 2-(2,6-difluoro-4-(7-(2-hydroxypropan-2-yl)-2-methyl-2H-indazol-4-yl)benzyl)isoindolin-1-one], on human mAChRM1 [1], the Emax was 85% and the EC50 turned out to be 0.155 µM. The “Agonist Activity Human M1 EC50” value on human mAChRM1 [2] was “inactive”.
In the same order, the values of `CC(C)(O)c1cc(-c2ccc(CN3Cc4ncccc4C3=O)c(F)c2)c2[nH]nnc2c1` [Compound 75, 6-(2-fluoro-4-(5-(2-hydroxypropan-2-yl)-1H-benzo[d][1,2,3]triazol-7-yl)benzyl)-6,7-dihydro-5H-pyrrolo[3,4-b]pyridin-5-one] are 45%, at least 10 µM and “inactive”.
The like results for `Cn1cc2c(-c3cnc(CN4Cc5cccnc5C4=O)c(F)c3)ccc(C(C)(C)O)c2n1` [Compound 124, 6-((3-fluoro-5-(7-(2-hydroxypropan-2-yl)-2-methyl-2H-indazol-4-yl)pyridin-2-yl)methyl)-5,6-dihydro-7H-pyrrolo[3,4-b]pyridin-7-one] were, in that order, 84%, 1.87 µM and “inactive”.
In the same order, the values of `CC(C)(O)c1ccc(-c2cc(F)c(CN3Cc4nccnc4C3=O)c(F)c2)cc1` [Compound 137, 6-((3,5-difluoro-4′-(2-hydroxypropan-2-yl)-[1,1′-biphenyl]-4-yl)methyl)-6,7-dihydro-5H-pyrrolo[3,4-b]pyrazin-5-one] are 60%, 5.04 µM and “inactive”.
`Cc1cc(-c2cc(C(C)(C)O)c3nn(C)cc3c2)ccc1CN1Cc2ncccc2C1=O` [Compound 35, 6-(4-(7-(2-hydroxypropan-2-yl)-2-methyl-2H-indazol-5-yl)-2-methylbenzyl)-6,7-dihydro-5H-pyrrolo[3,4-b]pyridin-5-one]: on human mAChRM1 [1], the Emax was found to be 68% and the EC50 worked out at 0.958 µM. In addition, the “Agonist Activity Human M1 EC50” value at human mAChRM1 [2] was “inactive”.
Take `CCC(O)(CC)c1ccc(-c2cc(F)c(CN3Cc4ncccc4C3=O)c(F)c2)c2cn(C)nc12` [Compound 54, 6-(2,6-difluoro-4-(7-(3-hydroxypentan-3-yl)-2-methyl-2H-indazol-4-yl)benzyl)-6,7-dihydro-5H-pyrrolo[3,4-b]pyridin-5-one]: at human mAChRM1 [1], the Emax came out at 66% and the EC50 was 2.29 µM. In addition, at human mAChRM1 [2], the “Agonist Activity Human M1 EC50” value is “inactive”.
With `Cn1cc2cc(-c3ccc(CN4Cc5ncccc5C4=O)c(F)c3)cc(C(C)(C)O)c2n1` [Compound 34, 6-(2-fluoro-4-(7-(2-hydroxypropan-2-yl)-2-methyl-2H-indazol-5-yl)benzyl)-6,7-dihydro-5H-pyrrolo[3,4-b]pyridin-5-one], at human mAChRM1 [1], the Emax turned out to be 65% and the EC50 is 0.326 µM. In addition, at human mAChRM1 [2], the EC50 was at least 10 µM and the Emax was determined as 17%.
